The target in data set [1] is T1, GGEc (Drosophila melanogaster, UniProt P34021).
T1 construct: expressed in transfected cells; host or cells: 293 cells
T1 sequence (P34021 329-878): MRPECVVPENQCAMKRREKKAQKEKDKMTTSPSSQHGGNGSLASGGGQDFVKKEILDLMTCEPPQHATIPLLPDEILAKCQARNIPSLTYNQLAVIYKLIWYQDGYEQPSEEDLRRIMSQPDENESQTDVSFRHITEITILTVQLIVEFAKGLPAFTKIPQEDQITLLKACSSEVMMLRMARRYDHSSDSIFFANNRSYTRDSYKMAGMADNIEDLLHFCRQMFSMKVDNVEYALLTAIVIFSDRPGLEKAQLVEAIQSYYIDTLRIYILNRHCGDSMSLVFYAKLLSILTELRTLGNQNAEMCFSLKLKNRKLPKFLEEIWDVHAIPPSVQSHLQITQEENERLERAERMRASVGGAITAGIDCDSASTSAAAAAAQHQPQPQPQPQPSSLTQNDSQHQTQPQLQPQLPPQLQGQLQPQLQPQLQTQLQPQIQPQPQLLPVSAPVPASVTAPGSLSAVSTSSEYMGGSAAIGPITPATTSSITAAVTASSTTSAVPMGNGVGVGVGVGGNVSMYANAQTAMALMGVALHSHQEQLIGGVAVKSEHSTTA
Description: Induction of GRE reporter G4M-77CO by chimeric receptor GGEc in 293 cells. In kind it is cell-based. Conditions: for fold induction: 293 cells, reporter G4M-77CO, normalized to hGH, SD in parentheses. The source says:
I choose to determine if the ligand-binding domain of DHR23a could be used to regulate the DNA-binding and transactivation domains of the mammalian glucocorticoid receptor for the following reasons. First, in contrast to DHR23α, high affinity DNA-binding sites for the GR have been identified (M. Beato, Cell 56, 335 [1989]) and reporter genes containing these sites are very strongly regulated. Thus, the sensitivity of our assays could be increased. Secondly, these chimeric receptors could be utilized to selectively regulate endogenous genes in mammalian cells in response to ecdysteroids. I constructed a chimeric gene, GGEc, in which the sequences encoding the ligand-binding domain of the GR were replaced with that of DHR23α (Fig. 4A). […] However, expression of the GRE-containing reporter gene was induced more than 700 fold by GGEc in muristerone-treated cells.

Data set [2] deals with X4C-33CO. Briefly: Lex-operator reporter X4C-33CO, control effector plasmid without receptor cDNA. It is filed as cell-based. The following applies: SD in parentheses. An excerpt: Such fusion constructs are expected to be useful in regulating the expression of exogenous genes introduced into transgenic mammals or mammalian cells. I next determined if the DHR23α ligand-binding domain could be used to regulate the activity of a DNA-binding domain not normally expressed in mammalian cells. I constructed the chimeric gene GLxEc by replacing the sequences coding for the GR DNA-binding domain in the GGEc fusion with those encoding the DNA-binding domain of the Escherichia coli LexA repressor (J. W. Little and S. A. Hill, Proc. Natl. Acad. Sci. U.S.A. 82, 2301 [1985]) (Fig. 4). A reporter gene, X4C-33CO was constructed that contains 4 copies of a 26-bp lex operator (R. Brent and M. Ptashne, Nature 312, 612 [1984]) at position -33 of the CMV promoter. GLxEc had no effect on the expression of a OC-33CO, a reporter gene lacking the lex operator (Fig. 6B).
Illustrated in Table 2 is the transcriptional activation by receptor-LexA fusion proteins. Effector plasmids encoding the indicated receptor proteins were transfected with a reporter gene either containing (X4C-33CO) or lacking (OC-33CO) lex-operators. […] The cells were incubated either with (+) or without (-) muristerone A. The fold induction was determined as described previously; the standard deviations are shown in parenthesis.

Take `CC(C)CCC(O)[C@](C)(O)[C@H]1CC[C@@]2(O)C3=CC(=O)C4(O)CC(O)C(O)C[C@]4(C)[C@H]3C(O)C[C@]12C` (stereo partly shown) [muristerone A, 2,3,5,11,14,20,22-Heptahydroxy-7-cholesten-6-one]: the fold induction result in data set [1] was “more than 700 fold”; in data set [1] (listed as M) it was 798 (57) fold; in data set [2], 1.1 (0.3) fold. Besides, the “relative efficacies of ecdysteroids as agonists for the chimeric receptor” value in data set [1] (GRE reporter G4M-77CO) is given as “strong”.

As usually defined, the fold induction is the ratio of treated to control signal.

Source of the values: patent publication EP0598011B1, “ECDYSTEROID DEPENDENT REGULATION OF GENES IN MAMMALIAN CELLS” (GENENTECH, INC., priority 1991, dated 1993).
